Test results published in patent US20120270237A9, “METHODS FOR THE IDENTIFICATION OF KINASE INTERACTING MOLECULES AND FOR THE PURIFICATION OF KINASE PROTEINS” (Cellzone AG, priority 2009, published 2012).

Experiments:
Assay in all cases: Kinobeads competition binding, L-363 cell lysate
Parameters in all cases: endogenous in cells
Conditions in all cases: 10 μM free compound, L-363 lysate
CDK2 = CDK2 (Homo sapiens, UniProt P24941)
Method: (§1) To one aliquot of cell lysate 10 μM of the free compound (FIG. 3, CZC31326) was added and allowed to bind to proteins in the lysate. Then the affinity matrix with the immobilized compound was added to capture proteins that were not interacting with the previously added free compound. Beads were separated from the lysate and bead bound proteins were eluted in SDS sample buffer and subsequently separated by SDS-Polyacrylamide gel electrophoresis (FIG. 8). Suitable gel bands were cut out and subjected to in-gel proteolytic digestion with trypsin. The second lysate aliquot was processed identically, however no free compound was added (DMSO solvent control). Peptides originating from samples 1 and 2 were labeled with iTRAQ reagents (iTRAQ 114 and iTRAQ 117) and the combined samples were analyzed with a nano-flow liquid chromatography system coupled online to a tandem mass spectrometer (LC-MS/MS) experiment followed by iTRAQ reporter ion quantification in the MS/MS spectra as described in Example 2.
(§2) For this experiment the human plasma cell leukaemia line L-363 was used (German Collection of Microorganisms and Cell Cultures, DSMZ number ACC49, Braunschweig, Germany). Cells were treated for three hours with 20 μM of the proteasome inhibitor MG132 (Z-Leu-Leu-Leu-al, Sigma C2211) prior to cell harvesting.

CDK9 = CDK9 (Homo sapiens, UniProt P50750)
Method: as §1, §2

Erk1 = Erk1 (Homo sapiens, UniProt P27361)
Method: as §1, §2

Erk2 = Erk2 (Homo sapiens, UniProt P28482)
Method: as §1, §2

FER = FER (Homo sapiens, UniProt P16591)
Method: as §1, §2

GAK = target: T1, GAK (Homo sapiens, UniProt O14976)
T1 sequence (O14976 1-1311): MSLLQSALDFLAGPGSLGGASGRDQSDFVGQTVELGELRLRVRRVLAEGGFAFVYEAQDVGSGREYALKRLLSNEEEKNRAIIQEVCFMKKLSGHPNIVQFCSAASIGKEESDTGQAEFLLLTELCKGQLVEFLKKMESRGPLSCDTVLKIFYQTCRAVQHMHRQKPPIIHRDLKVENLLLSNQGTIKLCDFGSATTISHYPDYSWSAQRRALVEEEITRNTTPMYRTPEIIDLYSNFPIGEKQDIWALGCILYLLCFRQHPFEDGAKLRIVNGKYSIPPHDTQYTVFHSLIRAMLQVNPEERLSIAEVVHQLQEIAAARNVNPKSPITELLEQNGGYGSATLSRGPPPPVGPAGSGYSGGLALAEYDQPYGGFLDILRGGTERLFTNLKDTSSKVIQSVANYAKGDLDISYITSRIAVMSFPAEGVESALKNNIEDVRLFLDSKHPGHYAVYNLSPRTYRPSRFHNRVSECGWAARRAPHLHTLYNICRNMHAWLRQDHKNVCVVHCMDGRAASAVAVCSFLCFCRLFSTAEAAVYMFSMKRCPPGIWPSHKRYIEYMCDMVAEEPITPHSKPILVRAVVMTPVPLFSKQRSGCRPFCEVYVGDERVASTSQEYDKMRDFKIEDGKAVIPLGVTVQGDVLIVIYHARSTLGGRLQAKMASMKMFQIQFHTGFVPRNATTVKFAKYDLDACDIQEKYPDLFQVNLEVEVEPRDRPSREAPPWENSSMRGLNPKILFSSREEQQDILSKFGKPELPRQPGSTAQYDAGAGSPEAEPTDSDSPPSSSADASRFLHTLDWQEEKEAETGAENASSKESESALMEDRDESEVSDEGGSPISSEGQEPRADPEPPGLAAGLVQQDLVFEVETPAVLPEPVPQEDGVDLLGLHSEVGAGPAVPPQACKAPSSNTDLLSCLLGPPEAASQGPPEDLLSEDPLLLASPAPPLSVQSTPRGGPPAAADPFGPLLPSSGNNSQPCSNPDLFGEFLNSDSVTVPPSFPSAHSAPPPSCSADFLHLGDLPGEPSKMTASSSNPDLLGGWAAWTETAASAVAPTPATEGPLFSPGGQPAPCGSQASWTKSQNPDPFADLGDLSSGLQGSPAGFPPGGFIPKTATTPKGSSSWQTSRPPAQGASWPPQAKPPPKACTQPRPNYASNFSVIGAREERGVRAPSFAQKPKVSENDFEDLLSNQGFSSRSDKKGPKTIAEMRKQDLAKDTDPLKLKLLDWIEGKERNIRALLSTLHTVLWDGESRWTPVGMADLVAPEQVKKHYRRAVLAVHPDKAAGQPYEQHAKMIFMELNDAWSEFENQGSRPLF
Method: as §1, §2

HPK1 = HPK1 (Homo sapiens, UniProt Q92918)
Method: as §1, §2

JNK1 = JNK1 (Homo sapiens, UniProt P45983)
Method: as §1, §2

MAP2K3 = MAP2K3 (Homo sapiens, UniProt P46734)
Method: as §1, §2

MYT1 = MYT1 (Homo sapiens, UniProt Q99640)
Method: as §1, §2

PKN1 = PKN1 (Homo sapiens, UniProt Q16512)
Method: as §1, §2

PLK1 = PLK1 (Homo sapiens, UniProt P53350)
Method: as §1, §2

PYK2 = PYK2 (Homo sapiens, UniProt Q14289)
Method: as §1, §2

RSK3 = RSK3 (Homo sapiens, UniProt Q15349)
Method: as §1, §2

Wee1 = Wee1 (Homo sapiens, UniProt P30291)
Method: as §1, §2

YES = YES (Homo sapiens, UniProt P07947)
Method: as §1, §2

Chain of CDK9 (P50750 whole entry): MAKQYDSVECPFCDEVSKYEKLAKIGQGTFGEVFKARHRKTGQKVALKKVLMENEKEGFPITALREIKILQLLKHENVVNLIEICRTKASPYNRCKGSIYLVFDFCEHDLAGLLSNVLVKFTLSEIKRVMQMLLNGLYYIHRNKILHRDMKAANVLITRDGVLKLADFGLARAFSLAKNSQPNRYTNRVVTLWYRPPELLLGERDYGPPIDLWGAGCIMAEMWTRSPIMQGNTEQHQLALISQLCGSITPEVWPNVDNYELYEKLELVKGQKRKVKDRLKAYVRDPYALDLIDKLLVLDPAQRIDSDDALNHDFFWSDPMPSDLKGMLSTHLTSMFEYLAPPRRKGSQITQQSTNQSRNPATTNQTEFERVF
Chain of Erk1 (P27361 whole entry): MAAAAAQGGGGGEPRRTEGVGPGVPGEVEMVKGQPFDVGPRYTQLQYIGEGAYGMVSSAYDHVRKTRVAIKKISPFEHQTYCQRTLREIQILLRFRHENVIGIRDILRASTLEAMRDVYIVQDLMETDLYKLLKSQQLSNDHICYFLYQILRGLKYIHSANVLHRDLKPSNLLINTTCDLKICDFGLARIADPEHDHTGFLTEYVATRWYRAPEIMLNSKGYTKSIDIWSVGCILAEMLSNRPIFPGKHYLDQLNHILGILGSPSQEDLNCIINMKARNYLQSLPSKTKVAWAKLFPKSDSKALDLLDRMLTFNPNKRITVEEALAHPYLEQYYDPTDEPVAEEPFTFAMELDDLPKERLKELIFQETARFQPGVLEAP
Chain of MYT1 (Q99640 whole entry): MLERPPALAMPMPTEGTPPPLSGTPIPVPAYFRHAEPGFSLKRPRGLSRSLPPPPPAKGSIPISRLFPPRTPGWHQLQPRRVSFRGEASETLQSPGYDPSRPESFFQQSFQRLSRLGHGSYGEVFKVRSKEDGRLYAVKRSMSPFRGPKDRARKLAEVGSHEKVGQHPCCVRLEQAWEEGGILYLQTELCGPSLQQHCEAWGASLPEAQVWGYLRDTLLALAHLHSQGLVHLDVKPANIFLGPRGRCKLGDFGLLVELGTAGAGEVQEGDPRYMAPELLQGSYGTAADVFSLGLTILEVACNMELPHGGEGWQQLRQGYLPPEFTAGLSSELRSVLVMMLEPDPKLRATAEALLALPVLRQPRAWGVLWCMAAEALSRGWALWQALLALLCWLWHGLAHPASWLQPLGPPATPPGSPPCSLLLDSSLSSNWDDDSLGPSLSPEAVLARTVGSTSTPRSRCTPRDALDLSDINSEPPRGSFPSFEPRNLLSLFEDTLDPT
Chain of PLK1 (P53350 whole entry): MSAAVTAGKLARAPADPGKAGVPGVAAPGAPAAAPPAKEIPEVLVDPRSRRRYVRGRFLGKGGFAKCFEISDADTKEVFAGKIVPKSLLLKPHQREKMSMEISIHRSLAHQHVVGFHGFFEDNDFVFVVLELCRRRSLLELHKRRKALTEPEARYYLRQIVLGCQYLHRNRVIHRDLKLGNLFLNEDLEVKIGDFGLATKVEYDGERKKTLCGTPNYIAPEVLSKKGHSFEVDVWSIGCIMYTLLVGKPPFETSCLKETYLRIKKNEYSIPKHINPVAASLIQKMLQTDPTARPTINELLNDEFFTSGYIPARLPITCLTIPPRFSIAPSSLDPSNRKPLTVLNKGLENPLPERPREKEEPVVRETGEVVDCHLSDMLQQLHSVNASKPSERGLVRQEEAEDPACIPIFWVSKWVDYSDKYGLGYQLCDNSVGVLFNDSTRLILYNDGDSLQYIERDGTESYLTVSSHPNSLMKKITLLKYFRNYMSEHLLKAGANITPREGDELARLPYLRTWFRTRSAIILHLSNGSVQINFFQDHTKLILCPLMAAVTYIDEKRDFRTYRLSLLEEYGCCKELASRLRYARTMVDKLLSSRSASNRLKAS
Chain of Erk2 (P28482 whole entry): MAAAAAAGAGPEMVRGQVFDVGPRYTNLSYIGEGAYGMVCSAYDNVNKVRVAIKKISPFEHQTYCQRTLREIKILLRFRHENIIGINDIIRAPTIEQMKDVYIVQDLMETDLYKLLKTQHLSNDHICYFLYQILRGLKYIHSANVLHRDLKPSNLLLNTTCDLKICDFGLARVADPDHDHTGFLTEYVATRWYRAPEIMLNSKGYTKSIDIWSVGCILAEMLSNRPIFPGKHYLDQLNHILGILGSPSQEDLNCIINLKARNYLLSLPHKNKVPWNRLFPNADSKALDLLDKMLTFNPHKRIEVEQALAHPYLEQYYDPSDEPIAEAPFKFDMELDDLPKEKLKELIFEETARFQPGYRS
Chain of RSK3 (Q15349 whole entry): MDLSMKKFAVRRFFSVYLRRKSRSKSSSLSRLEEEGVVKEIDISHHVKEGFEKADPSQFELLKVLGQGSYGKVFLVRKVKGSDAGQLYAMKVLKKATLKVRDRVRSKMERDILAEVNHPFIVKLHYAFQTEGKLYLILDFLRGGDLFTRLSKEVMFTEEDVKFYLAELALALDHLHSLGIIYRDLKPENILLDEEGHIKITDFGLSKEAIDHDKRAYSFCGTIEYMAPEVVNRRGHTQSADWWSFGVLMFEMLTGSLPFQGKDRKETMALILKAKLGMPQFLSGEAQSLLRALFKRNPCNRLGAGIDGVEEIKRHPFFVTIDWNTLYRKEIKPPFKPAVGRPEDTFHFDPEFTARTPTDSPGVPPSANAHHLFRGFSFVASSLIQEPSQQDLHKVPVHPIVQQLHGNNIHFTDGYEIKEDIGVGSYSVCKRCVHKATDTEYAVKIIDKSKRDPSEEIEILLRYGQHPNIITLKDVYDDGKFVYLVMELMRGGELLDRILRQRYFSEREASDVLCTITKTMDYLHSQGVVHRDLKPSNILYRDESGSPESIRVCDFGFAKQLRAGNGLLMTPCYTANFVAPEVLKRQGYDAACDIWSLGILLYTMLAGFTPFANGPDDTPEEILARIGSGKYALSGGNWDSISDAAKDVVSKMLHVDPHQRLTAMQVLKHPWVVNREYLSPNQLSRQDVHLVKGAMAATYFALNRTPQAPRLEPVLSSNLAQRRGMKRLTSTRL
Chain of MAP2K3 (P46734 whole entry): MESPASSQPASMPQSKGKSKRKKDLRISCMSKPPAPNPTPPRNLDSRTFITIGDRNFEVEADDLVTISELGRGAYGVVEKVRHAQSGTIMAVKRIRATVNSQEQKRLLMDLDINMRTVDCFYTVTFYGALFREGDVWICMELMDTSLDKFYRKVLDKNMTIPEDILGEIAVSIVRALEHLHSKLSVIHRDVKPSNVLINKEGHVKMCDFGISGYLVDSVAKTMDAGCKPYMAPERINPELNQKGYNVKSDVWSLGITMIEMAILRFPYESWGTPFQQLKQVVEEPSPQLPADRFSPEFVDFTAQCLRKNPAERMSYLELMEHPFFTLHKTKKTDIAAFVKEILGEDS
Chain of FER (P16591 whole entry): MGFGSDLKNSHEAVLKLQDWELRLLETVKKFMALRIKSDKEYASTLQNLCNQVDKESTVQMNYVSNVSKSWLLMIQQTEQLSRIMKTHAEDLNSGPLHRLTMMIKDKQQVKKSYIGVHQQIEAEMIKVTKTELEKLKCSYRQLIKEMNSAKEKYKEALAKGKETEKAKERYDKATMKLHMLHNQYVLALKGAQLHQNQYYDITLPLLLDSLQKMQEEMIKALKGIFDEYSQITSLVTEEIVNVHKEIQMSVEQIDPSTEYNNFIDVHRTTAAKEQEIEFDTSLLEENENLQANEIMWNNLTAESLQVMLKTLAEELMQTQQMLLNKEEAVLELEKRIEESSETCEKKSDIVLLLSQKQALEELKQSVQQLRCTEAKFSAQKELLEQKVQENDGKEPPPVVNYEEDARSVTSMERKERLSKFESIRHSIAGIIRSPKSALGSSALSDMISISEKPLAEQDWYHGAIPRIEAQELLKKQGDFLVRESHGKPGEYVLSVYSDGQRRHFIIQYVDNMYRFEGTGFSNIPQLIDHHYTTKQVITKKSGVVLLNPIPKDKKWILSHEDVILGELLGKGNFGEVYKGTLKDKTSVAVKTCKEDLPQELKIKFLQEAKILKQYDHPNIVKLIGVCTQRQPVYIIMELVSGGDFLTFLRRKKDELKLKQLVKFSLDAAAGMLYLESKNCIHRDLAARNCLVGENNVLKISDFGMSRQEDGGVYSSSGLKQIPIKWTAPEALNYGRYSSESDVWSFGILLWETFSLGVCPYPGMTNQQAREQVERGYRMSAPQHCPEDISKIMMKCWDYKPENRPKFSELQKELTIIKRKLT
Chain of YES (P07947 whole entry): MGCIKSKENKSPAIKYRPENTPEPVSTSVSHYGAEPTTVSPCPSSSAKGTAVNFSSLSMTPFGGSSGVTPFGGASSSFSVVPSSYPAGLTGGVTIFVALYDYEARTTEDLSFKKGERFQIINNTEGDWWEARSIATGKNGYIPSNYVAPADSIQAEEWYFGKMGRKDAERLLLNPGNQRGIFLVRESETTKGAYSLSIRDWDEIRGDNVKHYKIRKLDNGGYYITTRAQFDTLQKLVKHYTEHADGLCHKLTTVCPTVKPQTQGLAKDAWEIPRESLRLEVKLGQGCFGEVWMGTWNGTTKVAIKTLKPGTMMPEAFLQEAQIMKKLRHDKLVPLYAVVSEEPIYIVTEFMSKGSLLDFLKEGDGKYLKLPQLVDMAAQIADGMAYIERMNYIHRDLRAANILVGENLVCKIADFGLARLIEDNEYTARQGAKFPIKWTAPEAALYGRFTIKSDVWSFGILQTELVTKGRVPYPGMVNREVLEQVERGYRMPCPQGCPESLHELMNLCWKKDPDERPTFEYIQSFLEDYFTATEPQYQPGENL

Competition % (CDK2): 95.2% | inhibition at 10 µM (CDK9): 97.7% | inhibition at 10 µM (Erk1): 83.2% | inhibition at 10 µM (Erk2): 74.4% | inhibition at 10 µM (FER): 97.8% | inhibition at 10 µM (GAK): 98.2% | inhibition at 10 µM (HPK1): 98% | Competition % (JNK1): 87% | inhibition at 10 µM (MAP2K3): 93.9% | Competition % (MYT1): 93.1% | inhibition at 10 µM (PKN1): 95.9% | inhibition at 10 µM (PLK1): 96.8% | inhibition at 10 µM (PYK2): 96.1% | inhibition at 10 µM (RSK3): 96.9% | inhibition at 10 µM (Wee1): 96.4% | inhibition at 10 µM (YES): 89.6%
Structure (SMILES): CS(=O)(=O)Nc1ccccc1Nc1nc(Nc2cccc(OCCN)c2)ncc1Cl [CZC31326, N-(2-(2-(3-(2-aminoethoxy)phenylamino)-5-chloropyrimidin-4-ylamino)phenyl)methanesulfonamide]
